Measured values as given in US12545653B2, “Compound as PPAR agonist and application thereof” (USA Elixiria Biotech Inc., priority 2019, dated 2026).
Several values for one entry are separate records, joined by “and”; a condition that tells them apart may be missing. Identical values can stand only once.

Legend:
LN-229 cells = test: Brain cancer model, LN-229 cells injected into the striatum, tumor volume; assay type: in vivo, mouse; conditions: mice with LN-229 cells in striatum, 5 mg/kg body weight/day
Description: The treatment lasted for a total of 30 days. The compounds was dissolved in DMSO and mixed into food pellets. The animals were given ad libitum access to the pellets. […] The difference is significant with P<0.05.

[1] = tested on: rat model of hyperglycemia-induced nephropathy; test: Hyperglycemia-induced nephropathy model (streptozotocin); assay type: in vivo; conditions: streptozotocin rats, 5 mg/kg body weight/day in food, 90 days
Description: The method was as follows:
Wild type Sprague-Dawley rats were used. The compounds was dissolved in DMSO and mixed into food pellets. The animals were given ad libitum access to the pellets. […] In addition, 3 days before compound treatment, the animal of group 2 to 4 were given a single intraperitoneal injection of streptozotocin, and 3 days later, blood glucose levels were measured from tail veins using a glucose meter. Animals with blood glucose levels above 500˜650 milligrams per deciliter were considered as hyperglycemia and were used for further study. No any side effect, or significant body weight changes, or significant dietary changes were found during the administration. After 90 days after initiation of treatment, blood pressure values were measured with the tail cuff system. The day before the kidneys were harvested, animals were placed in metabolic cages for 24 h for urine collection, and albumin to creatinine ratio (ACR) was measured. Animals were then fasted for 12 hours and sacrificed under anesthesia with a 10% chloral hydrate solution (0.3 g/kg). Serum samples were isolated and biochemical parameters were analyzed with by enzyme colorimetry in an automatic analyzer (Roche) to determine the FBG (fasting blood glucose) level (unit millimole/L). In addition, fasting insulin (FINS) levels, where the units are milliIU/L, were determined by enzyme-linked immunosorbent assay (ELISA) method with anti-rat insulin antibodies, and TNF-α was detected by rat tumor necrosis factor-α (TNF-α) ELISA kit (BD). […] The difference is significant with P<0.05.

[2] = tested on: dIoN-CCI rat model of trigeminal neuropathic pain; test: Trigeminal neuralgia model (dIoN-CCI), Von Frey mechanical threshold; conditions: dIoN-CCI rats
[3] = Blood-brain barrier permeability: brain concentration after a single injection; assay type: in vivo, rat; conditions: male, rat, in vivo, ip, 10 mg/kg
Description: The blood-brain barrier permeability of carbonyl-containing cyclic compounds is determined in in vivo studies. Healthy male rats used in the study were divided into compound group and control group. […] The brains were dissected, heated immediately at boiling water for 2 min, homogenized with methanol, and centrifuged. The upper layer was collected and dried under vacuum to remove solvents, and then resuspended in methanol. The above samples are filtered through a 0.45 micron nylon membrane, and then 20 microL of sample were load into a high-performance liquid chromatographic (HPLC) system (Model LC-16P, Shimadzu, Japan) to perform quantitative analysis.

CCc1ccc(CC/C=C/c2ccc3c(c2)C(=O)CC3)cc1 [ELB00824, (E)-6-(4-(4-ethylphenyl)but-1-en-1-yl)-2,3-dihydro-1H-inden-1-one]
tumor volume at 30 days compared with disease control group (LN-229 cells): significant tumor volume reduction
blood TNF-α level compared with disease control group [1]: significant TNF-α level reduction
insulin resistance index ISI=ln (FBG*FINS) compared with disease control group [1]: significant ISI increase
urine albumin to creatinine ratio (ACR) compared with disease control group [1]: significant ACR reduction
duration of anti-allodynic effect (mechanical threshold 10 grams and above) ([2]; IP, 20 mg/kg body weight): 1.8 h
mechanical pain threshold after 1 hour of administration ([2]; IP, 20 mg/kg body weight): 12.8 ± 2.2 g
minimum effective anti-allodynic dose ([2]; oral): 3 mg/kg
mechanical threshold 2 hours after oral administration ([2]; oral 3 mg/kg body weight, Von Frey): 4.2 ± 0.8 g
duration of the anti-allodynic effect ([2]; oral 10 mg/kg): 2 h
mechanical pain threshold 2 hours after oral administration ([2]; oral 10 mg/kg body weight, Von Frey): 8.9 ± 2 g
duration of anti-allodynic effect (mechanical threshold 10 grams and above) ([2]; oral, 20 mg/kg body weight): 0.7 h
mechanical pain threshold after 1 hour of administration ([2]; oral, 20 mg/kg body weight): 6.8 ± 1.9 g
anti-allodynic property relative to pioglitazone ([2]; oral, from minimum effective doses): about 100 times
mechanical pain threshold after 1 hour of administration ([2]; transdermal cream containing 7% ELB00824, 20 mg/kg body weight): 19.8 ± 3.1 g
duration of anti-allodynic effect (mechanical threshold 10 grams and above) ([2]; transdermal, 20 mg/kg body weight): 2.3 h
Cmax [3]: 16.4 µM and 4830 ng/mL
AUC(0-t) ([3]; AUC0-6 h): 18700 ng·h/mL
AUC(0-t) ([3]; AUC0-24 h): 31500 ng·h/mL
